# Data reported in the supplement of paper PMC5579334.
# Key:
# [1] = system: HSC1; experiment: relative IC50 (inflection point of fitted dose-response curve, CellTiter-Glo viability, 72 h; top asymptote may be below 50% inhibition); higher = less potent
# How it was run: (§1)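 MPNST cell lines and primary human Schwann cells were seeded at 750–1000 cells per well into 384-well plates preprinted with each compound at five concentrations in 10-fold steps, then incubated 72 h at 37 °C, 5% CO2. CellTiter-Glo ATP luminescence gave viability, scaled between vehicle and positive-control wells, with duplicates averaged where present. Curves were fitted with a four-parameter logistic model. Percent inhibition refers to the top concentration, while drug sensitivity score and relative IC50, censored at the top concentration, come from these fits.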
# [2] = system: STS26T; experiment: as above
# How it was run: as §1
# [3] = system: HSC2; experiment: as above
# How it was run: as §1
# [4] = system: S1507-2; experiment: as above
# How it was run: as §1
# [5] = system: HS-Sch-2; experiment: as above
# How it was run: as §1
# [6] = system: YST-1; experiment: as above
# How it was run: as §1
# [7] = system: HS-PSS; experiment: as above
# How it was run: as §1
# [8] = system: ST8814; experiment: as above
# How it was run: as §1
# [9] = system: S462; experiment: as above
# How it was run: as §1
# [10] = system: HSC1; experiment: relative IC50 (inflection point of fitted dose-response curve, CellTox-Green cytotoxicity, 72 h; top asymptote may be below 50%); higher = less potent
# How it was run: (§2)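 For 72 h at 37 °C, MPNST cell lines and primary human Schwann cells were exposed in 384-well plates to five 10-fold compound dilutions. CellTox-Green, added before seeding at a final 1:1000 dilution, gave fluorescence from DNA released by disrupted cells. Signals were scaled to vehicle and positive-control wells, cultures failing plate quality control were left out, and four-parameter logistic fits were applied. Relative IC50 and drug sensitivity score were derived from the fits, with IC50 censored at the top concentration.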
# [11] = system: STS26T; experiment: as above
# How it was run: as §2
# [12] = system: HSC2; experiment: as above
# How it was run: as §2
# [13] = system: S1507-2; experiment: as above
# How it was run: as §2
# [14] = system: HS-PSS; experiment: as above
# How it was run: as §2
# [15] = system: ST8814; experiment: as above
# How it was run: as §2
SMILES,relative IC50 [1],relative IC50 [2],relative IC50 [3],relative IC50 [4],relative IC50 [5],relative IC50 [6],relative IC50 [7],relative IC50 [8],relative IC50 [9],relative IC50 [10],relative IC50 [11],relative IC50 [12],relative IC50 [13],relative IC50 [14],relative IC50 [15]
CCOc1cc2ncc(C#N)c(Nc3ccc(OCc4ccccn4)c(Cl)c3)c2cc1NC(=O)/C=C/CN(C)C [Neratinib],251 nM,178 nM,211 nM,187 nM,184 nM,327 nM,160 nM,146 nM,203 nM,> 1000 nM,> 1000 nM,> 1000 nM,> 1000 nM,> 1000 nM,> 1000 nM
O=C(CCCCCCC(=O)Nc1ccccc1)NO [Vorinostat],1310 nM,2250 nM,1570 nM,1680 nM,1770 nM,687 nM,2820 nM,1690 nM,2090 nM,3780 nM,2570 nM,3430 nM,2660 nM,2450 nM,3150 nM
CC(C)(C#N)c1cc(Cn2cncn2)cc(C(C)(C)C#N)c1 [Anastrozole],> 10000 nM,> 10000 nM,> 10000 nM,> 10000 nM,> 10000 nM,> 10000 nM,> 10000 nM,> 10000 nM,> 10000 nM,> 10000 nM,> 10000 nM,> 10000 nM,> 10000 nM,> 10000 nM,> 10000 nM
O=C(CCBr)N1CCN(C(=O)CCBr)CC1 [Pipobroman],> 10000 nM,> 10000 nM,> 10000 nM,> 10000 nM,> 10000 nM,> 10000 nM,> 10000 nM,> 10000 nM,> 10000 nM,> 10000 nM,> 10000 nM,> 10000 nM,> 10000 nM,> 10000 nM,> 10000 nM
O=C(Cc1ccc(-c2ccc(OCCN3CCOCC3)cc2)cn1)NCc1ccccc1 [KX2-391],52.3 nM,29.4 nM,73 nM,46.7 nM,30.5 nM,49.1 nM,163 nM,36.4 nM,34.3 nM,112 nM,23.6 nM,139 nM,30.2 nM,> 10000 nM,33.8 nM
C=CC(=O)Nc1cc2c(Nc3ccc(F)c(Cl)c3)ncnc2cc1OCCCN1CCOCC1 [Canertinib],1610 nM,2220 nM,2030 nM,1560 nM,2530 nM,3180 nM,2440 nM,1870 nM,2780 nM,2160 nM,2700 nM,2000 nM,2410 nM,2420 nM,2970 nM
